Measurements from patent US8362023B2, “Pyrazolo pyrimidines” (Hoffmann-La Roche Inc., priority 2011, dated 2013).
Counter-ions that a name gives are not always drawn.

Tests used:
Human DYRK1B = biological target: T1, Human DYRK1B (Homo sapiens, UniProt Q9Y463); assay: DYRK1B Kinase TR-FRET (IMAP-Tb) Assay; format: biochemical; details: TR-FRET (IMAP-Tb); ATP 70 μM; 37° C. for 60 minutes; averages of multiple runs; read-out: Enzyme IC50 (μM) DYRK1B
T1 construct: purchased Invitrogen PR8350B (former PV4649)
T1 sequence (Q9Y463 whole entry): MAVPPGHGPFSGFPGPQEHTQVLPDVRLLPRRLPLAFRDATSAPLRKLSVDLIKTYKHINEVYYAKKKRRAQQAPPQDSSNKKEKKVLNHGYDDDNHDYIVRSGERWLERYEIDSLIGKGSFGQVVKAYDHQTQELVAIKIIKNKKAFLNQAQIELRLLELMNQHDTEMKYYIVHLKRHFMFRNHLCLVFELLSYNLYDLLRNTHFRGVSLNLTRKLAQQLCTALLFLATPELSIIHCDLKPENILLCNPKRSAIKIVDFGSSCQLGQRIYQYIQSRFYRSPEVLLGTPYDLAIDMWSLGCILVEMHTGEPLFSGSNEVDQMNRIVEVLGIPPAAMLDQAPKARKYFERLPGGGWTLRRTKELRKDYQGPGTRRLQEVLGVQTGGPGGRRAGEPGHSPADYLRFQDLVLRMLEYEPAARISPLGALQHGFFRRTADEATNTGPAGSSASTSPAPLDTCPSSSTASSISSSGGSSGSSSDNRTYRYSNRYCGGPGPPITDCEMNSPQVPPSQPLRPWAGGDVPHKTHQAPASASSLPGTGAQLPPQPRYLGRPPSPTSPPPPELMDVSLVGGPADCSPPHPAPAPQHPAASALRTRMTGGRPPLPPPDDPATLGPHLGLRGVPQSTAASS

[1] = system: SW620 human colon cancer cells; assay: SW620 Cell Viability Assay; format: cell-based; details: SW-620, 96 h, CellTiter-Glo Luminescent Cell Viability Assay, 4 days incubation, read-out: Cellular EC50 (μM) SW620
Method: SW620 Cell Viability Assay
1. Cell Plate Preparation: SW620 human colon cancer cells (known to express DYRK1B), obtained from ATCC, were seeded into 96-well plates at 3×10^3 cells/well in 50 μL of media. • Harvested the required number of cells (counts & viability determined by Guava Viacount). • Centrifuge cells to pellet and removed supernant. • Resuspended in growth media (50 μL/well) & pipetted thoroughly to break up clumps. • Setup for ˜100 wells/plate, therefore, VT=5 mL/plate @ […].
1A. Some cells (S—) were allowed to attach for 24 hrs, serum starved for 48 hrs, and then followed with test compound treatments.
Test compound solution were prepared in regular corresponding media supplemented with serum.
2. Test compound Preparation: Drugs were solubilized in either DMSO or media and prepared at various stock concentrations. • All compounds were incubated at 37° C. for 30 minutes and vortexed. • (5 mM stocks of test compound were prepared for non-soluble test compounds)
3. Test compound Plate Preparation: • The 10 mM test compound stock was diluted to a concentration of 100× the final Cmax concentration. • Then the test compound stock is diluted 50-fold in media and/or second test compound for a final Cmax concentration in the test compound plate. • The Cmax in the test compound plate (2% DMSO) is 2-fold higher than the final Cmax in the cell plate (60 μl, titrations were 1:3).
4. Viability Assay: This assay was performed as follows: • Transfer 50 μL of test compound solution per well from the test compound plate onto the cell plate prepared in Step #1. • Mix the plate with treated cells by pipetting up and down three times with 200 μL multi-channel pipette. • Incubate the cells in 5% CO2 incubator @ 37° C. for 4 days. • Run the CellTiter-Glo™ Luminescent Cell Viability Assay.
The results of this assay, given as EC50 values, indicate the concentration of test compound that inhibits tumor cell proliferation by 50%.

Human DYRK1A = biological target: T2, Human DYRK1A (Homo sapiens, UniProt Q13627); assay: DYRK1A Kinase TR-FRET (IMAP-Tb) Assay; format: biochemical; details: TR-FRET (IMAP-Tb); ATP 70 μM; 37° C. for 60 minutes; averages of multiple runs; read-out: Enzyme IC50 (μM) DYRK1A
T2 construct: purchased Invitrogen PV3997
In short: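 Human DYRK1A phosphorylates a fluorescent substrate peptide (1.0 μM) in HEPES pH 7.0 buffer with Mg2+, DTT and vanadate for 60 min at 37 °C. The phosphopeptide is captured by IMAP beads carrying a Tb tracer, and the TR-FRET signal is read at 340 nm excitation. IC50 reflects inhibition of substrate phosphorylation.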

## NCC(Nc1nccc(-c2n[nH]c3nc(NCCN4CCOCC4)ncc23)n1)c1cccc(Cl)c1 (stereo not drawn) [Example 76, 1-(3-Chloro-phenyl)-N1-{4-[6-(2-morpholin-4-yl-ethylamino)-1H-pyrazolo[3,4-d]pyrimidin-3-yl]-pyrimidin-2-yl}-ethane-1,2-diamine; hydrochloride]
Human DYRK1B
  IC50: 0.0121 µM
[1]
  EC50: 0.14 µM
Human DYRK1A
  IC50: 0.0076 µM

## c1cc(-c2n[nH]c3nc(NCCN4CCOCC4)ncc23)nc(NCc2ccsc2)n1 [Example 77, (2-Morpholin-4-yl-ethyl)-(3-{2-[(thiophen-3-ylmethyl)-amino]-pyrimidin-4-yl}-1H-pyrazolo[3,4-d]pyrimidin-6-yl)-amine; hydrochloride]
Human DYRK1B
  IC50: 0.04 µM
[1]
  EC50: 5.99 µM
Human DYRK1A
  IC50: 0.0129 µM

## NCC(Nc1nccc(-c2n[nH]c3nc(N[C@H]4CC[C@H](N)CC4)ncc23)n1)c1cccc(Cl)c1 (stereo partly drawn) [Example 78, N-(3-{2-[2-Amino-1-(3-chloro-phenyl)-ethylamino]-pyrimidin-4-yl}-1H-pyrazolo[3,4-d]pyrimidin-6-yl)-cyclohexane-1,4-diamine; hydrochloride]
Human DYRK1B
  IC50: < 0.0046 µM
[1]
  EC50: 0.7 µM
Human DYRK1A
  IC50: 0.0046 µM

## NCCC(Nc1cccc(-c2n[nH]c3nc(N[C@H]4CC[C@H](N)CC4)ncc23)c1)c1ccccc1 (stereo partly drawn) [Example 79, N-{3-[3-(3-Amino-1-phenyl-propylamino)-phenyl]-1H-pyrazolo[3,4-d]pyrimidin-6-yl}-cyclohexane-1,4-diamine; hydrochloride]
Human DYRK1B
  IC50: 0.601 µM
[1]
  EC50: > 10 µM
Human DYRK1A
  IC50: 1.11 µM

## NCCC(Nc1nccc(-c2n[nH]c3nc(N[C@H]4CC[C@H](N)CC4)ncc23)n1)c1cccc(Cl)c1 (stereo partly drawn) [Example 80, N-(3-{2-[3-Amino-1-(3-chloro-phenyl)-propylamino]-pyrimidin-4-yl}-1H-pyrazolo[3,4-d]pyrimidin-6-yl)-cyclohexane-1,4-diamine; hydrochloride]
Human DYRK1B
  IC50: < 0.0046 µM
[1]
  EC50: 0.89 µM
Human DYRK1A
  IC50: 0.0046 µM

## NCCC(Nc1nccc(-c2n[nH]c3nc(NCCN4CCOCC4)ncc23)n1)c1ccccc1 (stereo not drawn) [Example 81, N1-{4-[6-(2-Morpholin-4-yl-ethylamino)-1H-pyrazolo[3,4-d]pyrimidin-3-yl]-pyrimidin-2-yl}-1-phenyl-propane-1,3-diamine; hydrochloride]
Human DYRK1B
  IC50: 0.0944 µM
[1]
  EC50: 1.75 µM
Human DYRK1A
  IC50: 0.112 µM

## NCC(Nc1nccc(-c2n[nH]c3nc(NCCN4CCOCC4)ncc23)n1)c1ccsc1 (stereo not drawn) [Example 82, N1-{4-[6-(2-Morpholin-4-yl-ethylamino)-1H-pyrazolo[3,4-d]pyrimidin-3-yl]-pyrimidin-2-yl}-1-thiophen-3-yl-ethane-1,2-diamine; hydrochloride]
Human DYRK1B
  IC50: 0.012 µM
[1]
  EC50: 0.27 µM
Human DYRK1A
  IC50: 0.005 µM
